# Assay results taken from PMC8402032, “Unsymmetric Cisplatin-Based Pt(IV) Conjugates Containing a PARP-1 Inhibitor Pharmacophore Tested on Malignant Pleural Mesothelioma Cell Lines” (Molecules, 2021).
# Legend:
# [1] = Reduction with ascorbic acid followed by RP-HPLC; type: physicochemical; details: ascorbic acid 10 mM, HEPES 50 mM pH 7.4, 37 °C, cosolvent DMF or MeOH, 24 h
# Description: To verify the activation by reduction mechanism, complexes 6–9 were challenged with the model bioreductant ascorbic acid (AA, 10 mM in water) in HEPES buffer (HEPES = 4-(2-hydroxyethyl)-1-piperazineethanesulfonic acid, 50 mM, pH = 7.4) at 37 °C. The reaction was monitored by following the RP-HPLC peaks over 24 h. The different solubility and retention times required different experimental conditions for the different compounds (cosolvent DMF or MeOH was necessary to maintain the Pt compounds in solution, >5% v/v). For these reasons, complete reduction for 8 and 9 was observed after 8 h, whereas for 6 and 7, the >85% peak area disappeared after 24 h only. […] Complexes 6–9, having very similar coordination skeletons, can be expected to behave in the same way.
# The reduction of complexes with ascorbic acid was followed by monitoring of the reduction of the area of their chromatographic peaks via RP-HPLC over 24 h at 37 °C. The Pt compounds were dissolved in methanol or DMF (up to 20 mM) and diluted with different quantities of 50 mM 4-(2-hydroxyethyl)piperazine-1-ethanesulfonic acid (HEPES) buffer (pH = […]) containing 10 mM ascorbic acid. The mixtures were microfiltered to eliminate the precipitated complex. The chromatographic conditions were similar to those for the determination of lipophilicity (see Section 3.4), with different percentages of methanol depending on the complex.
# PARP-1 [2] = target: T1, PARP-1 (Homo sapiens, UniProt P09874); assay: Cellular thermal shift assay (CETSA) for in-cell PARP-1 target engagement; type: binding; details: MSTO-211H intact cells, 50 µM, 15 min; 52, 56 and 60 °C
# T1 construct: endogenous in cells; host or cells: MSTO-211H cells
# T1 sequence (P09874 whole entry): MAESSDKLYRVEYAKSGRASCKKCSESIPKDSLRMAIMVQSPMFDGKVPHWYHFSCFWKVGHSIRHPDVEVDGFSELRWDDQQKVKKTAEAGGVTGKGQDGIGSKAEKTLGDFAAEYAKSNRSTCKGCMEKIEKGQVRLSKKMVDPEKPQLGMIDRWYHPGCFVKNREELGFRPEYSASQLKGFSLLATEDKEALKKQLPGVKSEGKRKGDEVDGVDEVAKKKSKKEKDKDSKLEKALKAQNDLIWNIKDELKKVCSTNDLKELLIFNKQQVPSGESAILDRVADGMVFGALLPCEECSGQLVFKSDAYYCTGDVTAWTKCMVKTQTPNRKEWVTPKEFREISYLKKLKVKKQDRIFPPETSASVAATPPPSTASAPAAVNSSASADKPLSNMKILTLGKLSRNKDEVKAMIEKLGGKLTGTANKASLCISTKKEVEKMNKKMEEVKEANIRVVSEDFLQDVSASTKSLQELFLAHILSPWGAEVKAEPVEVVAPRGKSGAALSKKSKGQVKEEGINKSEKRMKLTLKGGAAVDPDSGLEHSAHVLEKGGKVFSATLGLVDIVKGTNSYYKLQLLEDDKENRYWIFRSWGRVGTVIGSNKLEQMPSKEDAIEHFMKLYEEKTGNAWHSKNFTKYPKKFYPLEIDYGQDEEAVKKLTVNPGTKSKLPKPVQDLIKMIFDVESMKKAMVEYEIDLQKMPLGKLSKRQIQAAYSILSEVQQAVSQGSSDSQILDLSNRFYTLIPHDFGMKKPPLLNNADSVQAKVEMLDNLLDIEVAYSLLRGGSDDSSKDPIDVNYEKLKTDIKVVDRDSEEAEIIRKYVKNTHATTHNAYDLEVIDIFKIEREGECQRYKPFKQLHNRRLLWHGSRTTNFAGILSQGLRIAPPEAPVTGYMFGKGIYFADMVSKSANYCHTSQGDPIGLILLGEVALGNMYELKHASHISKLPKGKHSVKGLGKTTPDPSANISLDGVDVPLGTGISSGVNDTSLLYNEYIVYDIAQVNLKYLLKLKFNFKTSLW
# Source text: In order to confirm that PARP-1 is the direct target of 6, the cellular thermal shift assay (CETSA®) was employed. This assay is based on the biophysical principle of ligand-induced thermal stabilization of target proteins. Indeed, ligand-bound proteins are stabilized by their interacting partner and melt at a higher temperature with respect to the native protein. The test involves the drug treatment of the cellular system of choice, the heating of the cell to different temperatures, and the quantification of the presence of target protein in the soluble fraction by Western blotting to validate and quantify target engagement of drugs in cells and tissues.
# Multiple aliquots of MSTO-211H intact cells, previously incubated with the diluent, 3-ABA or 6, were heated to different temperatures ranging from 48 °C to 60 °C. After lysis, the soluble fractions were analyzed by SDS-PAGE followed by Western blot. In Figure 6, the stabilities of 6 and 3-ABA, at 52, 56, and 60 °C, are compared.
# For the intact cell experiments, MSTO-211H cells were treated with the diluent of the compound (Ctrl) or 6 (50 µM) in complete medium for 15 min at 37 °C, in a humidified environment containing 5% CO2. […] The supernatants were then analyzed by SDS-PAGE followed by Western blot analysis as previously described. […]
# PARP-1 [3] = target: T1, PARP-1; assay: Western blot of poly(ADP-ribose) (PAR) and PARP-1 in MSTO-211H cells; type: cell-based; details: 5 µM, 72 h
# Description: The effect of the most promising complex 6 on PARP-1 activity was further evaluated. MSTO-211H cells were treated with equimolar concentrations (5 µM) of 6, CDDP, and 3-ABA for 72 h. The two last compounds were used either alone or in combination in a 1:1 molar ratio. Western blot analysis evaluated the expression of poly(ADP-ribose) (PAR), which is the product of PARP-1 activity (Figure 4A).
# For protein analysis, cells were extracted with 1% NP-40 lysis buffer (50 mM Tris-HCl pH 8.5 containing 1% NP-40, 150 mM NaCl, 10 mM EDTA, 10 mM NaF, 10 mM Na4P2O7, and 0.4 mM Na3VO4) with freshly added protease inhibitors (10 μg mL^−1 leupeptin, 4 μg mL^−1 pepstatin, and 0.1 U mL^−1 aprotinin). Lysates were centrifuged at 13,000× g for 10 min at 4 °C and the supernatants were collected and assayed for protein concentration with the Bradford assay method (Bio-Rad). Proteins were separated by SDS-PAGE (sodium dodecyl sulfate polyacrylamide gel electrophoresis) under reducing conditions. Following SDS-PAGE, proteins were transferred to nitrocellulose, reacted with specific antibodies, and then detected with peroxidase-conjugate secondary antibodies and chemioluminescent ECL reagent. Digital images were taken with the Bio-Rad ChemiDocTM Touch Imaging System and quantified using Bio-Rad Image Lab 5.2.1.
# Figure 4 (A) Representative Western blot showing poly(ADP-ribose) (PAR) and PARP-1 expression following 72 h MSTO-211H cell treatment with diluent (Ctrl) or 5 µM concentrations of cisplatin (CDDP), 6, CDDP + 3-ABA combination (1:1 ratio), and 3-ABA alone. HSC70 protein was used as loading control. (B) Immunocytochemistry was used to capture representative γH2AX focus images following 72 h MSTO-211H cell treatment with diluent (Ctrl) or 5 µM of complex 6.
compound,measurement,setting,value
"CC(=O)[O][Pt]([NH2])([NH2])([Cl])([Cl])[O]C(=O)CCNC(=O)c1cccc(NC(=O)OCC2c3ccccc3-c3ccccc32)c1 [Compound 6, (OC-6-44)-Acetato[3-(3-(fmoc-amino)-benzamido)-propanoato]-diammine-dichlorido-platinum(IV)]",peak area disappeared after 24 h,[1],> 85%
same,thermal stability of PARP-1 protein levels,PARP-1 [2],more stable to heating as compared with the control and 3-ABA groups
same,PARP-1 cleavage,PARP-1 [3],complex 6 alone did
same,PARP-1 parylation (PAR expression),PARP-1 [3],No self-parylation of PARP-1
